Source: US20080311657A1, “Killing Human Lymphoma and Leukemia Cancer Cells and Tcr-Activated Normal Human Cells By Dopamine D1r Agonists” (priority 2005, published 2008)

Tests used:
Assay type in all cases: cell-based
[1] = system: resting normal human T-cells; experiment: Number of living cells counted by flow cytometry (FACSort) after D1R agonist
Method: Afterwards, the microtiter plates were placed in an incubator (37° C., humidified incubator, 5% CO2) for 3 days. Then, the number of living cells was evaluated by flow cytometry (the cells were counted by FACsort for a fixed time length of 1 min, in which 100 microliter of each sample was tested).
FIGS. 31A and B are graphs showing that A 77636 hydrochloride kills much more TCR-activated (FIG. 31B) than resting normal (FIG. 31A) human T-cells. […] The cells were then transferred to the incubator for 72 hr incubation. At the end of the 72 hr incubation, the number of living cells in each well was evaluated by flow cytometry (the cells were counted by FACsort for a fixed time length of 1 min, in which 100 microliter of each sample was tested).
(§1) Cell viability was tested afterwards.

[2] = system: Human T-cell leukemia (Jurkat) cells; experiment: as above
[3] = system: Human cutaneous Sezary T-lymphoma cells (HuT-78); experiment: as above; conditions: 10^−3M-10^−6M, 3 days
Method: Human cutaneous Sezary T-lymphoma cells (HUT-78) were seeded in 96 well plates (0.5 ml per well of 0.5 million cells/ml) and A 77636 hydrochloride was added and diluted 1:00 into the wells at starting concentrations of 10^−1M-10^−4M, so that the final concentration range tested was 10^−3M-10^−6M. Afterwards, the microtiter plates were placed in an incubator (37° C., humidified incubator, 5% CO2) for 3 days. Then, the number of living cells was evaluated by flow cytometry (the cells were counted by FACsort for a fixed time length of 1 min, in which 100 microliter of each sample was tested).
Human cutaneous Sezary T-lymphoma cells (HUT-78) were seeded in 96 well plates (0.5 ml per well of 0.5 million cells/ml) and A 68930 hydrochloride was added and diluted 1:00 into the wells at starting concentrations of 10^−1M-10^−4M, so that the final concentration range tested was 10^−3M-10^−6M. Afterwards, the microtiter plates were placed in an incubator (37° C., humidified incubator, 5% CO2) for 3 days. Then, the number of living cells was evaluated by flow cytometry (the cells were counted by FACsort for a fixed time length of 1 min, in which 100 microliter of each sample was tested).
Human cutaneous Sezary T-lymphoma cells (HUT-78) were seeded in 96 well plates (0.5 ml per well of 0.5 million cells/ml) and SKF 38393 hydrobromide was added and diluted 1:00 into the wells at starting concentrations of 10^−1M-10^−4M, so that the final concentration range tested was 10^−3M-10^−6M. Afterwards, the microtiter plates were placed in an incubator (37° C., humidified incubator, 5% CO2) for 3 days. Then, the number of living cells was evaluated by flow cytometry (the cells were counted by FACsort for a fixed time length of 1 min, in which 100 microliter of each sample was tested).
Cell viability was tested afterwards. […]
Cell survival/death was evaluated 3 days later by counting the number of living cells, using flow cytometry.

[4] = system: Human Burkitt's B-lymphoma cells (Daudi); experiment: as above; conditions: 10^−3M-10^−6M, 3 days
Method: Human Burkitt's B-lymphoma cells (Daudi) were seeded in 96 well plates (0.5 ml per well of 0.5 million cells/ml) and A 77636 hydrochloride was added and diluted 1:00 into the wells at starting concentrations of 10^−1M-10^−4M, so that the final concentration range tested was 10^−3M-10^−6M. […] Then, the number of living cells was evaluated by flow cytometry (the cells were counted by FACsort for a fixed time length of 1 min, in which 100 microliter of each sample was tested).
Human Burkitt's B-lymphoma cells (Daudi) were seeded in 96 well plates (0.5 ml per well of 0.5 million cells/ml) and A 68930 hydrochloride was added and diluted 1:00 into the wells at starting concentrations of 10^−1M-10^−4M, so that the final concentration range tested was 10^−3M-10^−6M. […] Then, the number of living cells was evaluated by flow cytometry (the cells were counted by FACsort for a fixed time length of 1 min, in which 100 microliter of each sample was tested).
[…] Then, the number of living cells was evaluated by flow cytometry (the cells were counted by FACsort for a fixed time length of 1 min, in which 100 microliter of each sample was tested).
as §1
The effect of dopamine itself (that can of course activate all its D1R-5 receptors) was also tested. All of these molecules were tested at a similar concentration (10^−4 M). […] The specificity and restriction of the effect to the D1R is also seen in Tables 7 and 8.

[5] = system: Human Burkitt's B-lymphoma cells (Raji); experiment: Cell death by LDH release (CytoTox 96); conditions: 10^−4M
Method: Human Burkitt's B-lymphoma cells (Raji) were seeded in 96 well plates (0.5 ml per well of 0.5 million cells/ml) and A 77636 hydrochloride was added and diluted 1:00 into the wells, at a fixed starting concentration of 10^−2M, so that the final concentration tested was 10^−4M. The cells were then transferred to an incubator (37° C., humidified incubator, 5% CO2) for 1 min, 10 min, 30 min, 60 min or 120 min incubation.

Cl.NC[C@@H]1O[C@H](C23CC4CC(CC(C4)C2)C3)Cc2c1ccc(O)c2O [A 77636 hydrochloride, (1R-cis)-1-(aminomethyl)-3,4-dihydro-3-tricyclo[3.3.1.13,7]dec-1-yl-[1H]-2-benzopyran-5,6-diol hydrochloride]
Killing effect by number of living cells (FIGS. 25-27), in words ([1]; 10^−3M-10^−6M, 3 days): significantly milder killing effect
% of cells killed ([1]; 10^−5 M, 72 hr): 12%
Cell death by number of living cells (FIGS. 10-12), in words ([2]; 10^−3M-10^−6M, 3 days): induces marked cell death
Killing, in words ([2]; 10^−4M, 1 min incubation then washed, living cells counted 3 days later): not sufficient to cause marked cell death
Killing, in words ([2]; 10^−4M, 15 minutes then washed, living cells counted 3 days later): significant
% of the cells killed (maximum) ([2]; 10^−4M, 1 hour of incubation then washed, living cells counted 3 days later): 94%
Killing, in words ([2]; 10^−4M, 72 hour incubation): no further effect
Speed of cell death by number of living cells (FIG. 30), in words ([2]; 10^−4M, exposure 1 min, 15 min, 1 hr or 72 hr): very rapid death
Cell death by number of living cells (FIGS. 13-15), in words [3]: induces marked cell death
Cell death by number of living cells (FIGS. 16-18), in words [4]: induces marked cell death
Exposure time at which extent of cell death reaches a plateau ([5]; LDH release): 1 h
Elevation in the release of LDH ([5]; exposure for 1 minute): ≈ 3 fold
Speed of cell death by LDH release (FIG. 28), in words ([5]; 1, 10, 30, 60 or 120 min): very rapid death
